Structures are written as SMILES.

Here are results for 22 compounds from PubChem BioAssay AID2031 (NMMLSC, 2009).

The target in this experiment is Rab7 GTPase wild-type (dog), GST fusion. Nature of the experiment: analogs blocking nucleotide binding to wildtype Rab7 – biochemical, oxadiazole analogs, multiplex bead flow cytometry, SAR follow-up (AID 2031). As to conditions: bead-based flow cytometry, Bodipy-FL-GTP binding; Ki calculated from EC50.
The Ki is the equilibrium dissociation constant of an inhibitor or competing ligand from its target. With `COc1ccc(-c2noc(CCC(=O)N3CCN(c4ccccc4Cl)CC3)n2)cc1`, the Ki is 0.15 µM.

Regarding `COc1ccc(-c2noc(CCC(=O)N3CCN(c4cc(C)ccc4C)CC3)n2)cc1`, the inhibition constant (Ki) was 0.16 µM. The same measure for `Cc1ccc(C)c(N2CCN(C(=O)CCc3nc(-c4ccc(F)cc4)no3)CC2)c1`: 0.04 µM; for `COc1ccc(-c2noc(CCC(=O)N3CCN(c4ccccc4F)CC3)n2)cc1`: 0.04 µM; for `Cc1ccc(C)c(N2CCN(C(=O)CCc3nc(-c4cccc(Br)c4)no3)CC2)c1`: 0.23 µM.

As to `Cc1ccc(C)c(N2CCN(C(=O)CCc3nc(-c4ccccc4)no3)CC2)c1`, the Ki is 0.08 µM.

As to `Cc1ccc(C)c(N2CCN(C(=O)CCc3nc(-c4ccccc4Br)no3)CC2)c1`, the inhibitory constant (Ki) was 0.27 µM. Consider `COc1cccc(-c2noc(CCC(=O)N3CCN(c4cc(C)ccc4C)CC3)n2)c1`, for which the inhibitory constant (Ki) is 0.22 µM.

`Cc1ccc(C)c(N2CCN(C(=O)CCc3nc(-c4ccccc4C)no3)CC2)c1`: the inhibitory constant (Ki) is 0.36 µM. With `COc1ccc(-c2cc(CCC(=O)N3CCN(c4cc(C)ccc4C)CC3)on2)cc1` the figure was 0.02 µM; with `Cc1ccc(C)c(N2CCN(C(=O)CCc3nc(-c4ccc(Cl)cc4)no3)CC2)c1`, 0.19 µM. As for `Cc1ccc(-c2noc(CCC(=O)N3CCN(c4cc(C)ccc4C)CC3)n2)cc1`, the Ki is 0.29 µM. With `COc1ccc(-c2noc(CCC(=O)N3CCC(c4cc(C)ccc4C)CC3)n2)cc1` the figure was 0.09 µM; with `COc1ccc(-c2noc(CCC(=O)N3CCN(c4ccccc4C(F)(F)F)CC3)n2)cc1`, 0.13 µM; with `COc1ccc(-c2noc(CCC(=O)N3CCN(c4ccccc4Br)CC3)n2)cc1`, 0.15 µM. Regarding `Cc1cccc(-c2noc(CCC(=O)N3CCN(c4cc(C)ccc4C)CC3)n2)c1`, the inhibition constant (Ki) was 0.07 µM. Take `COc1ccc(-c2noc(CCC(=O)N3CCN(c4cccc(C)c4C)CC3)n2)cc1`: the Ki was 0.1 µM. Consider `Cc1ccc(C)c(N2CCN(C(=O)CCc3nc(-c4ccc(Br)cc4)no3)CC2)c1`, for which the Ki is 0.1 µM. With `COc1ccc(-c2noc(CCC(=O)N3CCN(c4cccc(Cl)c4)CC3)n2)cc1`, the Ki was 2.03 µM.

For `Cc1ccc(C)c(N2CCN(C(=O)CCc3nc(-c4cccc(F)c4)no3)CC2)c1`, the Ki is 0.51 µM. With `COc1ccc(-c2noc(CCCC(=O)N3CCN(c4cc(C)ccc4C)CC3)n2)cc1` the figure was 0.94 µM; with `Cc1ccc(C)c(N2CCN(C(=O)CCc3nc(-c4cccc(C(F)(F)F)c4)no3)CC2)c1`, 0.05 µM.
